We go through 11 compounds from patent US5112841A, “Imidazole derivatives and antiepileptics comprising said imidazole derivatives as effective ingredients” (Mitsui Toatsu Chemicals, Incorporated, priority 1990, dated 1992).

A short description of data set [1]: Acute Toxicity (death within 5 days). The conditions noted are these: mouse, in vivo, oral, death in 5 days (LD50 in the method text), read-out: ED50. The method, then: ddy Male mice (body weight: 25-30 g) were used in groups each of which consisted of 5-6 mice. A test compound was orally administered. Mice which died in 5 days were counted. Death rate (%) wa calculated in accordance with the following calculation formula, and LD50 (mg/Kg) was determined therefrom. [formula]

Data set [2] can be described thus: in vivo. Also on record: species or system ddy Male mice. To be noted: mouse, po. Here is the method:
ddy Male mice (body weight: 25-30 g) were used in groups each of which consisted of 5-10 mice. A test compound was orally administered. One hour later, each mouse was caused to hold with the fore paws thereof a stainless steel wire whose diameter was 1.5 mm. […] Traction activity (%) was calculated in accordance with the following calculation formula, and ED50 (mg/Kg) was determined therefrom. [formula]

Data set [3] is described as follows: in vivo. Also on record: species or system ddy Male mice. The conditions noted are these: mouse, po. The method, then: ddy Male mice (body weight: 25-30 g) were used in groups each of which consisted of 5-10 mice. A test compound was orally administered One hour later, each mouse was placed on a rod which rotated a full turn per second. Mice which fell down within 120 seconds were counted. Rotorod action (%) was calculated in accordance with the following calculation formula, and ED50 (mg/Kg) was determined therefrom. [formula]
The source holds these as a separate data set.

For data set [4], the system named is mice. The experiment in a line: Maximal Electroshock Seizure Test (tonic-extensor convulsions of hind legs). It counts as in vivo, ddy Male mice. To be noted: Mus musculus; antiepileptic action; oral, electric shock 1 hour after dosing (200 Hz, 50 mA, 0.2 second). Here is the method:
ddy Male mice (body weight: 25-30 g) were used in groups each of which consisted of 5-10 mice. A test compound was orally administered. One hour later, an electric shock (200 Hz, 50 mA, 0.2 second) was applied through corneal electrodes. […] Antiepileptic action (%) was calculated in accordance with the following calculation formula, and ED50 (mg/Kg) was determined therefrom. [formula]
A general note: In the maximal electroshock model the usual endpoint is tonic extension of the hind limbs.

Structures can show the parent of a compound that is named as a salt.

In the case of `COc1ccc(-c2cc(-n3cc(Cn4ccnc4)c4ccccc43)on2)cc1.Cl` [Example 6, 1-{3-(4-Methoxyphenyl)-5-isoxazolyl}-3-(1-imidazolyl)methylindol hydrochloride], the LD50 at 120 h in data set [1] was over 1000 mg/kg. Moreover, the TD50 at 1 h in data set [2] and in data set [3] was over 750 mg/kg in each case. In addition, in data set [4], it took a dose of 7 mg/kg to reach the 50% effect level (ED50).
As to `Cl.N#Cc1ccc(-c2cc(-n3cc(Cn4ccnc4)c4ccccc43)on2)cc1` [Example 7, 1-(3-(4-Cyanophenyl)-5-isoxazolyl)-3-(1-imidazolyl)methylindole hydrochloride], in data set [4], the 50% effective dose (ED50) (as a rule, the midpoint of the dose-response relation) was in the range of 20 to 40 mg/kg.
The compound `Cl.Clc1ccccc1-c1cc(-n2cc(Cn3ccnc3)c3ccccc32)on1` [Example 9, 1-{3-(2-Chlorophenyl)-5-isoxazolyl}-3-(1-imidazolyl)methylindole hydrochloride] yielded an ED50 in data set [4] of 20 to 40 mg/kg.
As to `Cl.c1ccc(-c2cc(-n3cc(Cn4ccnc4)c4ccccc43)on2)cc1` [Example 1, 1-(3-phenyl-5-isoxazolyl)-3-(1-imidazolyl)methylindole hydrochloride], the LD50 at 120 h in data set [1] was over 1000 mg/kg. Further, the TD50 at 1 h in data set [2] was over 750 mg/kg; in data set [3] it was 500 mg/kg. Besides, the 50% effect level in data set [4] (ED50) was put at a dose of 9 mg/kg.
As for `Cc1ccc(-c2cc(-n3cc(Cn4ccnc4)c4ccccc43)on2)cc1` [Example 5, 1-(3-(p-Toluyl)-5-isoxazolyl}-3-(l-imidazolyl)-methylindole hydrochloride], it took a dose of 16 mg/kg to reach the 50% effect level in data set [4] (ED50).
Consider `COc1cccc(-c2cc(-n3cc(Cn4ccnc4)c4ccccc43)on2)c1.Cl` [Example 11, 1-(3-(3-Methoxyphenyl)-5-isoxazolyl}-3-(1-imidazolyl)methylindole hydrochloride], for which the LD50 at 120 h in data set [1] was over 1000 mg/kg. Further, the TD50 at 1 h in data set [2] and in data set [3] was over 750 mg/kg in each case. The 50% effect level in data set [4] (ED50) was put at a dose of 14 mg/kg.
On to `Cl.Fc1ccc(-c2cc(-n3cc(Cn4ccnc4)c4ccccc43)on2)cc1` [Example 3, 1-{3-(4-Fluorophenyl)-5-isoxazolyl)-3-(1-imidazolyl)methylindole hydrochloride], for which the median effective dose (ED50) in data set [4] is 20 to 40 mg/kg.
For the compound `Cl.Clc1cccc(-c2cc(-n3cc(Cn4ccnc4)c4ccccc43)on2)c1` [Example 10, 1-{3-(3-Chlorophenyl)-5-isoxazolyl)-3-(1-imidazolyl)methylindole hydrochloride], the ED50 in data set [4] lay within 20 to 40 mg/kg.
`O=C1NC(=O)C(c2ccccc2)(c2ccccc2)N1` [Phenytoin.Na, reference compound]: in data set [1], the LD50 at 120 h lay in the range of 300 to 500 mg/kg. Further, the TD50 at 1 h in data set [2] was determined as 350 mg/kg; in data set [3], 186 mg/kg. In addition, the 50% effect level in data set [4] (ED50) was put at a dose of 7 mg/kg.
`Cl.FC(F)(F)c1ccc(-c2cc(-n3cc(Cn4ccnc4)c4ccccc43)on2)cc1` [Example 8, 1-{3-(4-Trifluoromethylphenyl)-5-isoxazolyl}-3-(1-imidazolyl)methylindole hydrochloride] gave an ED50 in data set [4] of 20 to 40 mg/kg.
For `Cl.Clc1ccc(-c2cc(-n3cc(Cn4ccnc4)c4ccccc43)on2)cc1` [Example 4, 1-{3-(4-Chlorophenyl)-5-isoxazolyl}-3-(1-imidazolyl)methylindole hydrochloride], the ED50 in data set [4] was in the range of 20 to 40 mg/kg.
